Key:
[1] = system: C. acnes strain K8; test: Minimum inhibitory concentration (MIC) of cosmetic excipients, strain K8; format: cell-based, Cutibacterium acnes; conditions: % w/vol, incubated anaerobically 3 days at 37° C., growth scored visually
Description: (§1) In microbiology, the MIC is the lowest concentration of a chemical which prevents visible growth of bacterium. The resulted MIC value depends both on the microorganism and the test compound. The MIC is determined by preparing concentrations series of the test compound in vitro, incubating the solutions with the separate batches of cultured bacteria, and measuring the results using agar dilution or broth microdilution. For the experiments with C. acnes strains C3 and K8, media comprising yeast extract soy peptone and dextrose were used. The MIC is determined by turbidity.
(§2) A total of 125 cosmetic excipients were tested for their compatibility with C. acnes strains C3 and K8. Hydrophilic compounds were tested in a 96-well plate liquid broth format, poorly soluble compounds were pre-dissolved in DMSO before dilution in liquid broth and hydrophobic or solid compounds were tested in an agar well diffusion test assay. The different dilutions of the test excipients in media were prepared in Falcon tubes and then distributed in a deep well plate using a multistepper. Each well received 1.2 ml and was subsequently inoculated with 120 μl of C. acnes bacteria suspension (strain C3 and K8). From the deep well plate 200 μl were transferred in each well of a clear 96 well replicate plate. The leftover was discarded. The plates were then incubated anaerobically for 3 days at 37° C. Following incubation, the test plates were visually examined and wells were scored for growth or complete growth inhibition to define the minimum inhibitory concentration.
(§3) These excipients are listed in the below table with their compatibility values for C. acnes strains C3 and K8. The compatibility values represent the MIC value of the listed ingredients with the tested C. acnes strains. At this concentration [% w/vol] the tested compound starts interfering with the growth of the tested strains. The compounds can be used in formulations at concentrations below this concentration.

[2] = system: C. acnes strain C3; test: Minimum inhibitory concentration (MIC) of cosmetic excipients, strain C3; format: cell-based, Cutibacterium acnes; conditions: % w/vol, incubated anaerobically 3 days at 37° C., growth scored visually
Description: as §1, §2, §3

Compound	COMPATABILITY VALUE K8 [%] (MIC value) [1]	COMPATABILITY VALUE C3 [%] (MIC value) [2]
CCCCCCC(O)CO (centres unmarked) [caprylyl glycol]	0.18%	0.18%
CC(CO)CO [methylpropanediol]	4.00%	4.00%
ethylhexyl cocoate	10.00%	10.00%
tocopherol	1.50%	1.50%

From US12648903B2, “Skin care composition” (BEIERSDORF AG, priority 2019, dated 2026)
